Experimental data published in patent US12077503B2, “Substituted cyclic amides and their use as herbicides” (FMC CORPORATION, priority 2015, dated 2024).
Like-named read-outs stand apart in the source and are kept apart here.

Columns and labels:
Test in all cases: Test A preemergence
Assay type in all cases: in vivo
[1] = test system: ragweed (common ragweed, Ambrosia elatior); settings: Ambrosia artemisiifolia, pre-emergence, 240 h; for pest or weed control at 125 g/ha: 125 g ai/ha; for pest or weed control at 500 g/ha: 500 g ai/ha
In short: (§1)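 Compounds were formulated in a non-phytotoxic solvent mixture with surfactant and applied as a preemergence directed soil spray after seeding, or sprayed postemergence over plants 2 to 10 cm tall at the one- to two-leaf stage. Evaluation after about 10 d compared treated with untreated controls, using a scale from 0 (no effect) to 100 (complete control).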

Kochia (Kochia scoparia) = settings: Bassia scoparia, pre-emergence, 240 h; for pest or weed control at 125 g/ha: 125 g ai/ha; for pest or weed control at 500 g/ha: 500 g ai/ha
In short: as §1

[2] = test system: giant foxtail (Setaria faberii); settings: Setaria faberi, pre-emergence, 240 h; for pest or weed control at 125 g/ha: 125 g ai/ha; for pest or weed control at 500 g/ha: 500 g ai/ha
In short: as §1

[3] = test system: pigweed (Amaranthus retroflexus); settings: Amaranthus retroflexus, pre-emergence, 240 h; for pest or weed control at 125 g/ha: 125 g ai/ha; for pest or weed control at 500 g/ha: 500 g ai/ha
[4] = test system: ryegrass, Italian (Italian ryegrass, Lolium multiflorum); settings: Lolium multiflorum, pre-emergence, 240 h; for pest or weed control at 125 g/ha: 125 g ai/ha; for pest or weed control at 500 g/ha: 500 g ai/ha
In short: as §1

[5] = Preemergence, visual injury rating after approximately 10 d, read-out: Ragweed plant response rating (0 to 100 scale, 0 is no effect, 100 is complete control)
[6] = preemergence, visual injury rating about 10 d after treatment, 0 to 100 scale (0 no effect, 100 complete control), read-out: Ragweed plant response rating
[7] = Preemergence, visual injury rating after approximately 10 d, read-out: Kochia plant response rating (0 to 100 scale, 0 is no effect, 100 is complete control)
[8] = preemergence, visual injury rating about 10 d after treatment, 0 to 100 scale (0 no effect, 100 complete control), read-out: Kochia plant response rating
[9] = Preemergence, visual injury rating after approximately 10 d, read-out: Foxtail, Giant plant response rating (0 to 100 scale, 0 is no effect, 100 is complete control)
[10] = preemergence, visual injury rating about 10 d after treatment, 0 to 100 scale (0 no effect, 100 complete control), read-out: Foxtail, Giant plant response rating
[11] = Preemergence, visual injury rating after approximately 10 d, read-out: Pigweed plant response rating (0 to 100 scale, 0 is no effect, 100 is complete control)
[12] = preemergence, visual injury rating about 10 d after treatment, 0 to 100 scale (0 no effect, 100 complete control), read-out: Pigweed plant response rating
[13] = Preemergence, visual injury rating after approximately 10 d, read-out: Ryegrass, Italian plant response rating (0 to 100 scale, 0 is no effect, 100 is complete control)
[14] = preemergence, visual injury rating about 10 d after treatment, 0 to 100 scale (0 no effect, 100 complete control), read-out: Ryegrass, Italian plant response rating
[15] = preemergence, 0 to 100 scale where 0 is no effect and 100 is complete control, approx. 10 d, read-out: Ragweed plant response rating
[16] = preemergence, 0 to 100 scale where 0 is no effect and 100 is complete control, read-out: Ragweed plant response rating
[17] = preemergence, 0 to 100 scale where 0 is no effect and 100 is complete control, approx. 10 d, read-out: Kochia plant response rating
[18] = preemergence, 0 to 100 scale where 0 is no effect and 100 is complete control, read-out: Kochia plant response rating
[19] = preemergence, 0 to 100 scale where 0 is no effect and 100 is complete control, approx. 10 d, read-out: Foxtail, Giant plant response rating
[20] = preemergence, 0 to 100 scale where 0 is no effect and 100 is complete control, read-out: Foxtail, Giant plant response rating
[21] = preemergence, 0 to 100 scale where 0 is no effect and 100 is complete control, approx. 10 d, read-out: Pigweed plant response rating
[22] = preemergence, 0 to 100 scale where 0 is no effect and 100 is complete control, read-out: Pigweed plant response rating
[23] = preemergence, 0 to 100 scale where 0 is no effect and 100 is complete control, approx. 10 d, read-out: Ryegrass, Italian plant response rating
[24] = preemergence, 0 to 100 scale where 0 is no effect and 100 is complete control, read-out: Ryegrass, Italian plant response rating

Row | SMILES | pest or weed control at 125 g/ha [1, 5] [%] | pest or weed control at 500 g/ha [1, 6] [%] | pest or weed control at 125 g/ha (Kochia (Kochia scoparia); [7]) [%] | pest or weed control at 500 g/ha (Kochia (Kochia scoparia); [8]) [%] | pest or weed control at 125 g/ha [2, 9] [%] | pest or weed control at 500 g/ha [2, 10] [%] | pest or weed control at 125 g/ha [3, 11] [%] | pest or weed control at 500 g/ha [3, 12] [%] | pest or weed control at 125 g/ha [4, 13] [%] | pest or weed control at 500 g/ha [4, 14] [%] | pest or weed control at 125 g/ha [1, 15] [%] | pest or weed control at 500 g/ha [1, 16] [%] | pest or weed control at 125 g/ha (Kochia (Kochia scoparia); [17]) [%] | pest or weed control at 500 g/ha (Kochia (Kochia scoparia); [18]) [%] | pest or weed control at 125 g/ha [2, 19] [%] | pest or weed control at 500 g/ha [2, 20] [%] | pest or weed control at 125 g/ha [3, 21] [%] | pest or weed control at 500 g/ha [3, 22] [%] | pest or weed control at 125 g/ha [4, 23] [%] | pest or weed control at 500 g/ha [4, 24] [%]
1 | Cc1ccc([C@H]2CNC(=O)[C@@H]2C(=O)Nc2ccccc2S(C)(=O)=O)cc1C [Compound 1037] | 0 | 60 | 40 | 90 | 20 | 80 | 0 | 20 | 50 | 70 |  |  |  |  |  |  |  |  |  | 
2 | Cc1ccc([C@H]2CN(C)C(=O)[C@@H]2C(=O)Nc2cccc(F)c2F)cc1C [Compound 1039] | 10 | 90 | 80 | 100 | 90 | 100 | 20 | 40 | 60 | 80 |  |  |  |  |  |  |  |  |  | 
3 | Cc1cc([C@H]2CNC(=O)[C@@H]2C(=O)Nc2ccc(F)cc2F)ccc1C(F)(F)F [Compound 1043] | 0 | 50 | 60 | 70 | 70 | 90 | 0 | 20 | 20 | 50 |  |  |  |  |  |  |  |  |  | 
4 | CN1C[C@H](c2cscn2)[C@@H](C(=O)Nc2cccc(F)c2F)C1=O [Compound 1113] |  |  |  |  |  |  |  |  |  |  | 0 | 0 | 0 | 0 | 0 | 0 | 0 | 0 | 0 | 0
5 | CN1C[C@H](c2csc3ccccc23)[C@@H](C(=O)Nc2cccc(F)c2F)C1=O [Compound 1115] |  |  |  |  |  |  |  |  |  |  | 0 | 20 | 70 | 70 | 90 | 90 | 0 | 40 | 50 | 60
6 | O=C1NC[C@H](c2csc(C(F)F)c2)[C@H]1C(=O)Nc1ccccc1F [Compound 1118] |  |  |  |  |  |  |  |  |  |  | 20 | 60 | 0 | 70 | 60 | 90 | 0 | 0 | 40 | 50
7 | O=C1NC[C@H](c2csc(C(F)F)c2)[C@H]1C(=O)Nc1cccc(F)c1F [Compound 1119] |  |  |  |  |  |  |  |  |  |  | 70 | 70 | 70 | 80 | 50 | 80 | 0 | 30 | 20 | 30
8 | CN1C[C@H](c2cc(C(F)F)cs2)[C@@H](C(=O)Nc2cccc(F)c2F)C1=O [Compound 1121] |  |  |  |  |  |  |  |  |  |  | 50 | 100 | 80 | 100 | 90 | 100 | 0 | 50 | 50 | 60
9 | CCc1cc(CC)cc([C@H]2CNC(=O)[C@@H]2C(=O)Nc2cccc(F)c2F)c1 [Compound 1139] |  |  |  |  |  |  |  |  |  |  | 50 | 50 | 30 | 60 | 90 | 90 | 0 | 0 | 30 | 70
10 | Cc1c(F)cccc1NC(=O)[C@H]1C(=O)N(C)C[C@@H]1c1cc(F)cc(F)c1 [Compound 1140] |  |  |  |  |  |  |  |  |  |  | 30 | 60 | 80 | 80 | 100 | 100 | 0 | 40 | 30 | 40
11 | CCc1cc([C@H]2CNC(=O)[C@@H]2C(=O)Nc2cccc(F)c2F)cs1 [Compound 1155] |  |  |  |  |  |  |  |  |  |  | 40 | 80 | 60 | 90 | 70 | 90 | 0 | 30 | 0 | 30
12 | CCc1cc([C@H]2CN(C)C(=O)[C@@H]2C(=O)Nc2cccc(F)c2F)cs1 [Compound 1157] |  |  |  |  |  |  |  |  |  |  | 0 | 80 | 90 | 90 | 90 | 100 | 30 | 60 | 30 | 90
13 | CN1CC[C@H](c2cccc(C(F)(F)F)c2)[C@@H](C(=O)Nc2cccc(F)c2Cl)C1=O [Compound 1158] |  |  |  |  |  |  |  |  |  |  | 0 | 0 | 30 | 30 | 100 | 100 | 0 | 0 | 60 | 70
14 | Cc1nc([C@H]2CNC(=O)[C@@H]2C(=O)Nc2ccccc2F)cs1 [Compound 1179] |  |  |  |  |  |  |  |  |  |  | 0 | 0 | 0 | 0 | 0 | 0 | 0 | 0 | 0 | 0
